# Measurements from BindingDB's records for doi:10.1111/cbdd.12843 (Key Laboratory for Neurodegenerative Diseases of Ministry …, 2017).
# Target: D(2) dopamine receptor (Homo sapiens, UniProt P14416)
# Assay: Dopamine D2 Receptor Activity Assay
# Conditions: 37 °C
# Protocol: D2 receptor/G protein α16a co-transfected HEK293 cells (from the Shanghai Institute of Materia Medica, Chinese Academy of Sciences) were seeded in 96-wellplates and incubated overnight at 37 °C. The media were then removed, and 40 μL of 10 μM Fluo-4/AM (a calcium fluorescent probe) (Invitrogen Corporation, Carlsbad, CA, USA) was added. The plates were then incubated for 40 min at 37 °C. After the supernatant was discarded and the cells were washed with calcium buffer, 50 μL of calcium buffer containing tested compounds at the dosage range from 0.01 nM to 10 μM was added, and the plates were incubated for 10 min. The fluorescence values at an emission wavelength of 525 nm and an excitation wavelength of 485 nm were detected by the FlexStation II microplate reader (Molecular Devices, San Francisco, CA, USA), starting 15 s after 25 μL of calcium buffer containing 50 nM dopamine (an agonist of the dopamine D2 receptor) (Sigma-Aldrich, Saint Louis, MO,USA) was automatically added by the instrument.
# D(2) dopamine receptor, sequence (P14416 whole entry): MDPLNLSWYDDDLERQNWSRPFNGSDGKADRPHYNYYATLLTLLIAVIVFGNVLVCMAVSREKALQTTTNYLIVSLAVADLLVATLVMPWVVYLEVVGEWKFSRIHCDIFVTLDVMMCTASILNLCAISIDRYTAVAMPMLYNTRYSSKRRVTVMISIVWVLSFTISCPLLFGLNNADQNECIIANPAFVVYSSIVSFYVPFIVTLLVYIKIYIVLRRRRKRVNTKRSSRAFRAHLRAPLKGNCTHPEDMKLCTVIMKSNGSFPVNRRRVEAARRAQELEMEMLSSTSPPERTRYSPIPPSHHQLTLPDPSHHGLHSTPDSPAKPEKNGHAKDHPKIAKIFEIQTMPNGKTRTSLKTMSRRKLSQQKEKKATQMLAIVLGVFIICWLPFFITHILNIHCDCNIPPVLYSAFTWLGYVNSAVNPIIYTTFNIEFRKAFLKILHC
row,Structure (SMILES),IC50 [µM]
1,O=C1C[C@@H](c2ccc(F)cc2)Oc2cc(OCCCCN3CCC(c4noc5cc(F)ccc45)CC3)cc(O)c21 [5-Hydroxy-2-(4-fluorophenyl)-7-(4-(4-(6-fluorobenzo[d]isoxazol-3-yl)piperidin-1-yl)butoxy)chroman-4-one (7e)],0.0877
2,COc1ccc([C@@H]2CC(=O)c3c(O)cc(OCCCCN4CCN(c5ccccc5OC)CC4)cc3O2)cc1 [5-Hydroxy-2-(4-methoxyphenyl)-7-(4-(4-(2-methoxyphenyl)piperazin-1-yl)butoxy)chroman-4-one (7a)],0.205
3,COc1ccc([C@@H]2CC(=O)c3c(O)cc(OCCCN4CCN(c5ccccc5OC)CC4)cc3O2)cc1 [5-Hydroxy-2-(4-methoxyphenyl)-7-(4-(4-(2-methoxyphenyl)piperazin-1-yl)propoxy)chroman-4-one (7f)],0.22
4,COc1ccc([C@@H]2CC(=O)c3c(O)cc(OCCCCN4CCC(c5noc6cc(F)ccc56)CC4)cc3O2)cc1 [5-Hydroxy-2-(4-methoxyphenyl)-7-(4-(4-(6-fluorobenzo[d]isoxazol-3-yl)piperidin-1-yl)butoxy)chroman-4-one (7d)],0.0513
5,COc1ccc([C@@H]2CC(=O)c3c(O)cc(OCCCN4CCC(c5noc6cc(F)ccc56)CC4)cc3O2)cc1 [5-Hydroxy-2-(4-methoxyphenyl)-7-(4-(4-(6-fluorobenzo[d]isoxazol-3-yl)piperidin-1-yl)propoxy)chroman-4-one (7g)],0.116
6,COc1ccccc1N1CCN(CCCCOc2cc(O)c3c(c2)O[C@H](c2ccc(C)cc2)CC3=O)CC1 [5-Hydroxy-2-(4-methylphenyl)-7-(4-(4-(2-methoxyphenyl)piperazin-1-yl)butoxy)chroman-4-one (7b)],0.346
7,COc1ccccc1N1CCN(CCCCOc2cc(O)c3c(c2)O[C@H](c2ccc(F)cc2)CC3=O)CC1 [5-Hydroxy-2-(fluorophenyl)-7-(4-(4-(2-methoxyphenyl)piperazin-1-yl)butoxy)chroman-4-one (7c)],0.0573
